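Growth conditions: 96-well plates. Treatment: test compound, 48 hours, 5 concentrations. Analysis: linear interpolation between bracketing concentrations; unreached endpoints set to highest concentration. At the GI50, growth is halved. Definition used: TGI = concentration required for complete inhibition of growth.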
Assays:
Experiment in all cases: growth of human tumour cells (NCI), 48 h
HCC-2998 colon = test system: HCC-2998 colon
UO-31 renal = test system: UO-31 renal
COLO 205 colon = test system: COLO 205 colon
K-562 leukemia = test system: K-562 leukemia
SK-OV-3 ovarian = test system: SK-OV-3 ovarian
SNB-75 CNS = test system: SNB-75 CNS
OVCAR-8 ovarian = test system: OVCAR-8 ovarian
HL-60(TB) leukemia = test system: HL-60(TB) leukemia
MALME-3M melanoma = test system: MALME-3M melanoma
KM12 colon = test system: KM12 colon
UACC-257 melanoma = test system: UACC-257 melanoma
MCF7 breast = test system: MCF7 breast
BT-549 breast = test system: BT-549 breast

SMILES | TGI (HCC-2998 colon) | TGI (UO-31 renal) | TGI (COLO 205 colon) | TGI (K-562 leukemia) | TGI (SK-OV-3 ovarian) | TGI (SNB-75 CNS) | TGI (OVCAR-8 ovarian) | TGI (HL-60(TB) leukemia) | TGI (MALME-3M melanoma) | TGI (KM12 colon) | TGI (UACC-257 melanoma) | GI50 (SK-OV-3 ovarian) | TGI (MCF7 breast) | TGI (BT-549 breast)
CSCCC(C(=O)O)N(CC1(O)OCC(O)C(O)C1O)N=O (centres undefined) | > 100 µM | > 100 µM | > 100 µM | > 100 µM | > 100 µM | > 100 µM | > 100 µM | > 100 µM | > 100 µM | > 100 µM | > 100 µM |  |  | 
O=c1c([OH2+])c(-c2ccc(O)cc2[O-])oc2cc(O)cc([O-])c12.O=c1c([OH2+])c(-c2ccc(O)cc2[O-])oc2cc(O)cc([O-])c12.[Ti+4] |  | > 100 µM | > 100 µM | > 100 µM | > 100 µM | > 100 µM | > 100 µM | > 100 µM | > 100 µM | > 100 µM | > 100 µM | > 100 µM |  | 
COc1ccc(-c2cc(=O)c3c(O)cc(O)cc3o2)c(OC)c1OC | > 100 µM |  | > 100 µM | > 100 µM | > 100 µM | > 100 µM |  | > 100 µM | > 100 µM | > 100 µM | > 100 µM |  |  | 
CC1=C2C3OC(=O)C(C)C3CCC2(C)C=CC1=Nc1ccccc1 (centres undefined) | > 100 µM | > 100 µM | > 100 µM | > 100 µM | > 100 µM | > 100 µM | > 100 µM | > 100 µM | > 100 µM | > 100 µM | > 100 µM |  | > 100 µM | 
N/C(=N\S(=O)(=O)c1cc(Cl)c(Oc2ccc([N+](=O)[O-])cc2Cl)c(Cl)c1)Nc1ccc(Cl)cc1 |  | 34.1 µM | 30.5 µM | 43.1 µM | 39.8 µM | 35.2 µM | 31.9 µM | 39.6 µM | > 100 µM | 36.6 µM | 32.8 µM |  |  | 32.3 µM
CCO/C(Cc1ccc(Cl)cc1)=N/NC(N)=S | > 100 µM | > 100 µM | > 100 µM | > 100 µM | > 100 µM | > 100 µM | > 100 µM |  | > 100 µM | > 100 µM | > 100 µM |  | > 100 µM | > 100 µM
COC(=O)/C(C#N)=C(\N)c1c(C)c2ccccc2oc1=N |  |  | > 100 µM | > 100 µM | > 100 µM | > 100 µM |  | > 100 µM |  | > 100 µM | > 100 µM |  | > 100 µM | > 100 µM
NC(=O)C(=CNC(=S)Nc1cccc(C(F)(F)F)c1)C(N)=O | > 100 µM | > 100 µM | > 100 µM | > 100 µM | > 100 µM | > 100 µM | > 100 µM | > 100 µM |  | > 100 µM | > 100 µM |  | > 100 µM | 
C=C1Cc2cc(OC)c(OC)c(OC)c2-c2ccc(SC)c(=O)cc21 | 0.402 µM | 6.96 µM | < 0.0318 µM | > 34.8 µM | 5.15 µM | 15.1 µM |  |  | 2.57 µM | < 0.01 µM | 7.62 µM |  |  | 
O=C(C/C=C/c1ccccc1)c1ccccc1 | 33.4 µM | 28.2 µM | 56.6 µM |  | > 100 µM | 69.2 µM | 49.1 µM | 66 µM |  | 25.6 µM | 72.1 µM |  | 32.7 µM | 
CN(C(=O)c1ccco1)C(=S)N1CCN(c2ccccn2)CC1 |  | > 100 µM | > 100 µM | > 100 µM | > 100 µM | > 100 µM | > 100 µM | > 100 µM | > 100 µM | > 100 µM | > 100 µM |  |  | 
O=[N+]([O-])c1cccc(N=Nc2c(O)ccc3ccccc23)c1 |  | > 100 µM | > 100 µM | > 100 µM | > 100 µM | > 100 µM | > 100 µM |  | > 100 µM | > 100 µM | > 100 µM |  |  | > 100 µM
CCOC(=O)c1cc(C2CCN(Cc3ccccc3)C2=S)c(C(=O)C=[N+]=[N-])[nH]1 (centres undefined) | > 100 µM | 57.5 µM | > 100 µM | > 100 µM | > 100 µM | 91.6 µM | > 100 µM |  | 66.3 µM | > 100 µM | 71.4 µM |  | 40.4 µM | 67.6 µM
Cc1csc(NNC(=O)Nc2ccccc2)n1 | > 100 µM | > 100 µM | > 100 µM | > 100 µM | > 100 µM | > 100 µM | > 100 µM | > 100 µM | > 100 µM | > 100 µM | > 100 µM |  | > 100 µM | 
O=C1O/C(=C\c2ccc(O)cc2)C(c2ccc(O)c(Cl)c2)=C1Cl | 89.9 µM | > 100 µM | > 100 µM | > 100 µM | > 100 µM | > 100 µM | > 100 µM | 94.7 µM | 74.5 µM | > 100 µM | > 100 µM |  | 47.4 µM | 
CCCN(CCC)C1=Nc2ccccc2-n2cnnc2C1 |  | > 100 µM | > 100 µM | > 100 µM |  |  | > 100 µM | > 100 µM | > 100 µM | > 100 µM |  |  |  | 
CCCCc1c2c(c(C)c3c1C(=O)OC3)Oc1ccccc1O2 | 3.22 µM | > 100 µM | 7.69 µM | 22.4 µM | > 100 µM | 13.4 µM | 35.7 µM |  | > 100 µM | > 100 µM | 96.9 µM |  | > 100 µM | > 100 µM
S=C(N1CCN(c2ccccc2)CC1)N1CCN(c2ccccc2)CC1 | > 100 µM | > 100 µM | > 100 µM | > 100 µM | > 100 µM | > 100 µM | > 100 µM |  | > 100 µM | > 100 µM | > 100 µM |  | > 100 µM | > 100 µM
CCCCc1ccc(C#CC#Cc2ccc(CCCC)s2)s1 | > 100 µM | > 100 µM | > 100 µM |  | > 100 µM | > 100 µM | > 100 µM | > 100 µM |  | > 100 µM | > 100 µM |  | > 100 µM | 
N#Cc1c(O)c2ccccc2[nH]c1=O | > 100 µM | > 100 µM | > 100 µM | > 100 µM | > 100 µM | > 100 µM | > 100 µM | > 100 µM | > 100 µM | > 100 µM | > 100 µM |  | > 100 µM | 

— PubChem BioAssay (NCI)
